Patent US8450317B2, “CXCR3 receptor antagonists” (Boehringer Ingelheim International GmbH, priority 2009, dated 2013)
pIC50: −log10 of the molar value.

Biological target: CXCR3 (Macaca fascicularis, UniProt A0A2K5UV19)
Assay: functional cellular assay measuring calcium flux in CXCR3 transfected cells (block of CXCR3/IP-10 interaction)
Format: cell-based, Cyno
Conditions: IP-10 induced intracellular calcium flux; Cyno-CHO cells stably expressing recombinant CXCR3 and G-alpha-16; IP-10 at EC80; read-out: IC50
Description: Compounds are assessed for the ability to block the interaction of CXCR3 and IP-10 in a functional cellular assay measuring calcium flux in CXCR3 transfected cells.
Cyno-CHO cells, stably expressing recombinant CXCR3 and G-alpha-16 are grown in F12 medium (Mediatech #45000-360) supplemented with 10% (V/V) FBS (Mediatech #35-01500), 1% Geneticin (Invitrogen #10131-027) and 0.2% Zeocin (Invitrogen #R250-05). The cells are spun down and re-suspended in growth media to a concentration of […]. 25 microL of cell suspension is added to each well of a BD-384-well TC treated plate, providing 12,000 cells/well. The plate is incubated at 37° C./5% CO2 overnight. On the day of the assay, the plates are removed, the media is flicked out and 25 microL of Ca-4 dye in assay buffer (HBSS, 10 mM HEPES ph 7.4), containing 2 mM probenacid is added to each well. The cell assay plates are then incubated at 37° C./5% CO2 for one hour.
Test compounds are dissolved in DMSO and diluted to 1.045 mM in DMSO. Just prior to assay, 2.75 microL of appropriately diluted test compound are added to each well of a 384 well plate containing 45 microL of HBSS buffer. After mixing, 5 microL of diluted compound are added to each well of the cell assay plate for a final assay concentration of 10 microM. The plate is incubated at room temperature for 15 min. 10 microL of IP-10 stock solution in HBSS (4× EC80 concentration) are added to each well of the cell assay plate except those cells reserved as blank wells containing buffer only. Intracellular calcium flux is recorded on the HAMAMTSU FDSS6000, using excitation at 480 nm and emission at 540 nm. Data are analyzed using Activity Base software.
In general, the preferred potency range (IC50) of compounds in the above assay is between 1 nM to 3 μM, and the most preferred potency range is 1 nM to 200 nM.

Sequence of CXCR3 (A0A2K5UV19 entry or part of it): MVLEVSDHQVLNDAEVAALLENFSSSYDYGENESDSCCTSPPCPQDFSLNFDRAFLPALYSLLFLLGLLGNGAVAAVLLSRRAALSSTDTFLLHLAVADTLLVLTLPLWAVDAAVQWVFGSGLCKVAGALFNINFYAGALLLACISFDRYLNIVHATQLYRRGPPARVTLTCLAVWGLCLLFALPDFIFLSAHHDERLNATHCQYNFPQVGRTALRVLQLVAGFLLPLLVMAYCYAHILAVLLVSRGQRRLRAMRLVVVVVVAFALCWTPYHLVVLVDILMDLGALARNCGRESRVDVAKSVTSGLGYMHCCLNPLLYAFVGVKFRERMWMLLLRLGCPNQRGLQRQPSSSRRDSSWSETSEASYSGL

pIC50 | SMILES
7.52 | CC1CN(c2ccc(C(F)(F)F)cc2-c2cnc(S(C)(=O)=O)nc2)CCN1C(=O)Cn1ccc2cccnc21 (stereo not shown) [1-(2-methyl-4-{2-[2-(methylsulfonyl)pyrimidin-5-yl]-4-(trifluoromethyl)phenyl}piperazin-1-yl)-2-(1H-pyrrolo[2,3-b]pyridin-1-yl)ethanone]
7.57 | CC1CN(c2ccccc2-c2cnc(S(C)(=O)=O)nc2)CCN1C(=O)Cn1ccc2cccnc21 (stereo not shown) [1-(2-methyl-4-{2-[2-(methylsulfonyl)pyrimidin-5-yl]phenyl}piperazin-1-yl)-2-(1H-pyrrolo[2,3-b]pyridin-1-yl)ethanone]
8.10 | CC1CN(c2ccc(C(F)(F)F)cc2-c2cnc(N3CCC(S(C)(=O)=O)CC3)nc2)CCN1C(=O)Cn1c(=O)[nH]c2ccccc21 (stereo not shown) [1-(2-{2-methyl-4-[2-{2-[4-(methylsulfonyl)piperidin-1-yl]pyrimidin-5-yl}-4-(trifluoromethyl)phenyl]piperazin-1-yl}-2-oxoethyl)-1,3-dihydro-2H-benzimidazol-2-one]
7.96 | CC1CN(c2ccc(C(F)(F)F)cc2-c2cnc(N3CCC(S(C)(=O)=O)CC3)nc2)CCN1C(=O)CN1CCCCC1=O (stereo not shown) [1-(2-{2-methyl-4-[2-{2-[4-(methylsulfonyl)piperidin-1-yl]pyrimidin-5-yl}-4-(trifluoromethyl)phenyl]piperazin-1-yl}-2-oxoethyl)piperidin-2-one]
7.96 | COc1ncc(-c2ccccc2N2CCN(C(=O)Cn3c(=O)n(C)c4ccccc43)CC2)cn1 [1-(2-{4-[2-(2-Methoxy-pyrimidin-5-yl)-phenyl]-piperazin-1-yl}-2-oxo-ethyl)-3-methyl-1,3-dihydro-benzoimidazol-2-one]
8.00 | O=C(Cn1c(=O)[nH]c2ccccc21)N1CCN(c2ccccc2-c2cnc(N3CCOCC3)nc2)CC1 [1-(2-{4-[2-(2-Morpholin-4-yl-pyrimidin-5-yl)-phenyl]-piperazin-1-yl}-2-oxo-ethyl)-1,3-dihydro-benzoimidazol-2-one]
7.89 | COc1ncc(-c2cc(F)ccc2N2CCN(C(=O)Cn3c(=O)[nH]c4ccccc43)CC2)cn1 [1-(2-{4-[4-fluoro-2-(2-methoxypyrimidin-5-yl)phenyl]piperazin-1-yl}-2-oxoethyl)-1,3-dihydro-2H-benzimidazol-2-one]
6.76 | COc1ncc(-c2cc(F)ccc2N2CCN(C(=O)CN3CCCCC3=O)CC2)cn1 [1-(2-{4-[4-fluoro-2-(2-methoxypyrimidin-5-yl)phenyl]piperazin-1-yl}-2-oxoethyl)piperidin-2-one]
8.22 | Cc1cc(C)n(CC(=O)N2CCN(c3ccccc3-c3cnc(N4CC(C)OC(C)C4)nc3)CC2)n1 (stereo not shown) [1-(4-{2-[2-(2,6-Dimethyl-morpholin-4-yl)-pyrimidin-5-yl]-phenyl}-piperazin-1-yl)-2-(3,5-dimethyl-pyrazol-1-yl)-ethanone]
8.15 | Cc1cc(C)n(CC(=O)N2CCN(c3ccccc3-c3cnc(N4CC(F)(F)C4)nc3)CC2)n1 [1-(4-{2-[2-(3,3-Difluoro-azetidin-1-yl)-pyrimidin-5-yl]-phenyl}-piperazin-1-yl)-2-(3,5-dimethyl-pyrazol-1-yl)-ethanone]
8.05 | Cc1cc(C)n(CC(=O)N2CCN(c3ccccc3-c3cnc(N4CCCC(F)(F)C4)nc3)CC2)n1 [1-(4-{2-[2-(3,3-Difluoro-piperidin-1-yl)-pyrimidin-5-yl]-phenyl}-piperazin-1-yl)-2-(3,5-dimethyl-pyrazol-1-yl)-ethanone]
7.85 | Cc1cc(C)n(CC(=O)N2CCN(c3ccccc3-c3cnc(N4CC(C)CC(C)C4)nc3)CC2)n1 (stereo not shown) [1-(4-{2-[2-(3,5-Dimethyl-piperidin-1-yl)-pyrimidin-5-yl]-phenyl}-piperazin-1-yl)-2-(3,5-dimethyl-pyrazol-1-yl)-ethanone]
7.66 | Cc1cc(C)n(CC(=O)N2CCN(c3ccccc3-c3cnc(N4CCC(F)(F)CC4)nc3)CC2)n1 [1-(4-{2-[2-(4,4-Difluoro-piperidin-1-yl)-pyrimidin-5-yl]-phenyl}-piperazin-1-yl)-2-(3,5-dimethyl-pyrazol-1-yl)-ethanone]
7.92 | Cc1cc(C)n(CC(=O)N2CCN(c3ccccc3-c3cnc(N4CCC(C)(C)CC4)nc3)CC2)n1 [1-(4-{2-[2-(4,4-Dimethyl-piperidin-1-yl)-pyrimidin-5-yl]-phenyl}-piperazin-1-yl)-2-(3,5-dimethyl-pyrazol-1-yl)-ethanone]
7.51 | Cc1cc(C)n(CC(=O)N2CCN(c3ccccc3-c3cnc(N4CCC(N(C)C)CC4)nc3)CC2)n1 [1-(4-{2-[2-(4-Dimethylamino-piperidin-1-yl)-pyrimidin-5-yl]-phenyl}-piperazin-1-yl)-2-(3,5-dimethyl-pyrazol-1-yl)-ethanone]
7.96 | CN1CCN(c2ncc(-c3ccccc3N3CCN(C(=O)Cn4ccc5cccnc54)CC3)cn2)CC1 [1-(4-{2-[2-(4-Methyl-piperazin-1-yl)-pyrimidin-5-yl]-phenyl}-piperazin-1-yl)-2-pyrrolo[2,3-b]pyridin-1-yl-ethanone]
8.00 | CC1CN(c2ccc(C(F)(F)F)cc2-c2cnc(N3CCC(O)CC3)nc2)CCN1C(=O)Cn1ccc2cccnc21 (stereo not shown) [1-(4-{2-[2-(4-hydroxypiperidin-1-yl)pyrimidin-5-yl]-4-(trifluoromethyl)phenyl}-2-methylpiperazin-1-yl)-2-(1H-pyrrolo[2,3-b]pyridin-1-yl)ethanone]
8.15 | CC1CN(c2ccc(C(F)(F)F)cc2-c2cnc(N3CCC(O)CC3)nc2)CCN1C(=O)Cn1ccc2ccncc21 (stereo not shown) [1-(4-{2-[2-(4-hydroxypiperidin-1-yl)pyrimidin-5-yl]-4-(trifluoromethyl)phenyl}-2-methylpiperazin-1-yl)-2-(1H-pyrrolo[2,3-c]pyridin-1-yl)ethanone]
7.96 | CC1CN(c2ccc(C(F)(F)F)cc2-c2cnc(N3CCC(O)CC3)nc2)CCN1C(=O)Cn1cnc2cccnc21 (stereo not shown) [1-(4-{2-[2-(4-hydroxypiperidin-1-yl)pyrimidin-5-yl]-4-(trifluoromethyl)phenyl}-2-methylpiperazin-1-yl)-2-(3H-imidazo[4,5-b]pyridin-3-yl)ethanone]
8.05 | CC1CN(c2ccccc2-c2cnc(N3CCC(O)CC3)nc2)CCN1C(=O)Cn1ccc2cccnc21 (stereo not shown) [1-(4-{2-[2-(4-hydroxypiperidin-1-yl)pyrimidin-5-yl]phenyl}-2-methylpiperazin-1-yl)-2-(1H-pyrrolo[2,3-b]pyridin-1-yl)ethanone]
8.10 | CC1CN(c2ccccc2-c2cnc(N3CCC(O)CC3)nc2)CCN1C(=O)Cn1ccc2ccncc21 (stereo not shown) [1-(4-{2-[2-(4-hydroxypiperidin-1-yl)pyrimidin-5-yl]phenyl}-2-methylpiperazin-1-yl)-2-(1H-pyrrolo[2,3-c]pyridin-1-yl)ethanone]
7.96 | CC1CN(c2ccccc2-c2cnc(N3CCC(O)CC3)nc2)CCN1C(=O)Cn1cnc2cccnc21 (stereo not shown) [1-(4-{2-[2-(4-hydroxypiperidin-1-yl)pyrimidin-5-yl]phenyl}-2-methylpiperazin-1-yl)-2-(3H-imidazo[4,5-b]pyridin-3-yl)ethanone]
8.15 | C[C@@H]1CN(c2ncc(-c3ccccc3N3CCN(C(=O)Cn4ccc5cccnc54)CC3)cn2)C[C@@H](C)O1 [1-(4-{2-[2-((2R,6R)-2,6-Dimethyl-morpholin-4-yl)-pyrimidin-5-yl]-phenyl}-piperazin-1-yl)-2-pyrrolo[2,3-b]pyridin-1-yl-ethanone]
8.00 | C[C@@H]1CN(c2ncc(-c3ccccc3N3CCN(C(=O)Cn4ccc5cccnc54)CC3)cn2)C[C@H](C)O1 [1-(4-{2-[2-((2R,6S)-2,6-Dimethyl-morpholin-4-yl)-pyrimidin-5-yl]-phenyl}-piperazin-1-yl)-2-pyrrolo[2,3-b]pyridin-1-yl-ethanone]
8.40 | Cc1cc(C)n(CC(=O)N2CCN(c3ccccc3-c3cnc(N4CC[C@@H](N(C)C)C4)nc3)CC2)n1 [1-(4-{2-[2-((R)-3-Dimethylamino-pyrrolidin-1-yl)-pyrimidin-5-yl]-phenyl}-piperazin-1-yl)-2-(3,5-dimethyl-pyrazol-1-yl)-ethanone]
8.40 | Cc1cc(C)n(CC(=O)N2CCN(c3ccccc3-c3cnc(N4C[C@H]5CC[C@@H]4C5)nc3)CC2)n1 [1-(4-{2-[(1R,4S)-2-(2-Aza-bicyclo[2.2.1]hept-2-yl)-pyrimidin-5-yl]-phenyl}-piperazin-1-yl)-2-(3,5-dimethyl-pyrazol-1-yl)-ethanone]
8.10 | O=C(Cn1ccc2cccnc21)N1CCN(c2ccc(F)cc2-c2cnc(N3CCC(O)CC3)nc2)CC1 [1-(4-{4-fluoro-2-[2-(4-hydroxypiperidin-1-yl)pyrimidin-5-yl]phenyl}piperazin-1-yl)-2-(1H-pyrrolo[2,3-b]pyridin-1-yl)ethanone]
8.00 | O=C(Cn1ccc2ccncc21)N1CCN(c2ccc(F)cc2-c2cnc(N3CCC(O)CC3)nc2)CC1 [1-(4-{4-fluoro-2-[2-(4-hydroxypiperidin-1-yl)pyrimidin-5-yl]phenyl}piperazin-1-yl)-2-(1H-pyrrolo[2,3-c]pyridin-1-yl)ethanone]
